For series [1], the system named is BT474 cells. Briefly: BT474 cell-based assay. The note with it: Trastuzumab-MMAE conjugates, Table 4.
Series [2] deals with SK-BR-3 cells. Kind of series: In vitro cell viability assay (CellTiter Blue) in SK-BR-3 cells. In kind it is cell-based. The note with it: Trastuzumab-MMAE conjugates. The protocol:
SK-BR-3 cells were seeded in 96 well black clear-bottom plates at 10K cells/well and cultured for 24 hours. Cells were treated for 96 hours with 2 fold serially diluted antibody-drug conjugates in triplicates. Cells viability was determined by […]™ Blue Cell Viability Assay (Promega, Madison, Wis.). Relative cell viability was determined as a percentage of untreated control. IC50 was calculated using a four parameter logistic model from XLfit.
(The colour change of resazurin is a common sign of viable cells or microbes.)

Series [3] in a line: In vivo stability in blood of NCI N87 xenograft mice (sandwich ELISA, ratio ADC/mAb). Conditions: blood samples up to 21 days. (In general: An ELISA detects its analyte on a solid surface through an enzyme-linked reagent.)
Method: After ADC administration, blood samples of 20 μl were taken every 1-2 days up to 21 days by poking mouse tails and mixed with 120 μl of storage buffer (PBS with 10 mM EDTA and 0.1 M NH4Cl). Then total trastuzumab and ADC were analyzed by sandwich ELISA. Black NUNC® Maxisorp 96 plates were coated with Her2 protein at 100 ng/well. Samples were further diluted with PBS as needed to suit the linear detection range of 10 pg to 2 ng (for either Trastuzumab or ADC). After applying samples (fresh ADC dilutions were used as both total mAb and ADC standards) and washing, rabbit polyclonal anti-trastuzumab (for total mAb) or anti-MMAE (for total ADC) were applied as secondary antibodies while Goat anti-Rabbit IgG-HRP (Life-technologies) was used as the detection antibody. AMPLEX® Red (Cayman Chemical)/4-Iodophenol (Sigma)/H2O2 mixture was used as fluorescence substrate. Plates were read on SpectraMax GEMINI′ with 555 nm Ex and 585 nm Em.
Series [4] concerns the target IgG1 (Homo sapiens, UniProt P01857, D239E/L241M). Kind of series: mTgase-catalysed conjugation of IgG1 with MDC (HPLC). In kind it is biochemical. The note with it: high enzyme concentration. The protocol: MDC was chosen for this experiment because it has a primary amine and its fluorescence can be easily monitored. […] To purified IgG1 (1-10 mg/ml) in Tris-buffer (pH 6.5-8.5), add MDC (Sigma-Aldrich) in DMSO to final concentrations of 1-5 mM (final DMSO 2-10%). Add purified wildtype TG_SL or its mutant to a final concentration of 0.05-1.0 mg/ml. Incubate the reaction mixtures at 37° C. Reaction was followed by HPLC using phenyl hydrophobic interaction column (PHIC, Tosoh Bioscience LLC). At the beginning of the reaction, the product was dominated by DAR1, where only one heavy chain of IgG1 was coupled with MDC. As the reaction progressed, DAR 2, where both heavy chains of IgG1 are coupled with MDC, became the major product. Toward the end of reaction (8 hours at 0.2 mg/ml of mTgase at pH 7), conjugation yield reached 80% for DAR2 with 20% of DAR 1 left, or 90% for heavy chain (HC) when the sample was reduced by 10 mM TCEP and analyzed on C4-1000A column (Vydac) (see FIG. 6). The selective conjugation of MDC to HC was visualized on SDS PAGE (FIG. 7). Other mTgases, such as TG_SM from S. mobaraensis (purified from Ajinomoto's Activa TI), was also tested.

From patent US11285128B2, “Homogenous antibody drug conjugates via enzymatic methods” (CSPC Megalith Biopharmaceutical Co., Ltd., priority 2014, dated 2022) come the findings set out here.

IgG1, sequence (P01857 with tags, fused parts or gaps isoform P01857-1 D239E/L241M, other chains not shown): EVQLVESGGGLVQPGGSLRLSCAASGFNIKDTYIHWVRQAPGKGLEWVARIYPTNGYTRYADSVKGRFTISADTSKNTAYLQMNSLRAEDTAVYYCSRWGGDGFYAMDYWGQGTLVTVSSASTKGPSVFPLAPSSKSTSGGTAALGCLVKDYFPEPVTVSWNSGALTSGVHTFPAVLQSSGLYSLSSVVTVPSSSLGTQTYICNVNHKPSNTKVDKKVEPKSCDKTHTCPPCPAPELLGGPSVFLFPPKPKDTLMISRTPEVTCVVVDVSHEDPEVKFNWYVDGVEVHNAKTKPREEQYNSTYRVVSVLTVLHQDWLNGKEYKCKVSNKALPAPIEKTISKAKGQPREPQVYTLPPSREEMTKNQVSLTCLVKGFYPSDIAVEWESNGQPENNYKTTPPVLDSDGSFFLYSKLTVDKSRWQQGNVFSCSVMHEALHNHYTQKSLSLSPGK

The term IC50 denotes the point on the concentration scale where inhibition reaches its midpoint. A low value points to greater potency in that assay. As for PEG8, the IC50 in series [1] worked out at 0.23 nM; in series [2], 0.042 nM.
As to PEG4, the IC50 in series [1] is 0.273 nM; in series [2] it was 0.061 nM.
For PEG12, the IC50 worked out at 0.267 nM in series [1] and 0.038 nM in series [2]. Moreover, the “stability in blood (ratio of ADC/mAb vs time)” value in series [3] is “completely stable in blood”.
In the case of PEG6, the results for the IC50 in series [1] and in series [2] were 0.234 nM and 0.05 nM, respectively.

B1: TG_SM: mTgase from S. mobaraensis, purified from Ajinomoto's Activa TI (SEQ ID NO:18) (protein)
chain: DSDDRVTPPAEPLDRMPDPYRPSYGRAETVVNNYIRKWQQVYSHRDGRKQQMTEEQREWLSYGCVGVTWVNSGQYPTNRLAFASFDEDRFKNELKNGRPRSGETRAEFEGRVAKESFDEEKGFQRAREVASVMNRALENAHDESAYLDNLKKELANGNDALRNEDARSPFYSALRNTPSFKERNGGNHDPSRMKAVIYSKHFWSGQDRSSSADKRKYGDPDAFRPAPGTGLVDMSRDRNIPRSPTSPGEGFVNFDYGWFGAQTEADADKTVWTHGNHYHAPNGSLGAMHVYESKFRNWSEGYSDFDRGAYVITFIPKSWNTAPDKVKQGWP
B1: the “activity comparing to TG_SL” value in series [4] is reported as “about 30%”.
